# In PubChem BioAssay AID330 (DTP/NCI, 2004):
# Where “and” joins values, the source holds several entries; their conditions need not be identical. Identical values can stand only once. Toxic doses and inconclusive results are not listed.
# System: P388 leukemia ip, CD2F1 mice, survival T/C
# Assay: NCI In Vivo Anticancer Drug Screen. Data for tumor model P388 Leukemia (intraperitoneal) in CD2F1 (CDF1) mice
# Settings: endpoint: median survival time, higher = longer survival
# Summary of the method: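 Mice carrying the transplanted tumor received test compound or vehicle. Survival was recorded in each group, and the value is the treated-group measurement divided by that of the vehicle-treated control group.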
# [1] = dose: 12.5 mg/kg/injection, schedule: Q01DX005 (ip), vehicle: saline
# [2] = dose: 25.0 mg/kg/injection, schedule: Q01DX005 (ip), vehicle: saline
# [3] = dose: 50.0 mg/kg/injection, schedule: Q01DX005 (ip), vehicle: Klucel (hydroxypropylcellulose) (HPC)
# [4] = dose: 100.0 mg/kg/injection, schedule: Q01DX005 (ip), vehicle: Klucel (hydroxypropylcellulose) (HPC)
# [5] = dose: 50.0 mg/kg/injection, schedule: Q01DX009 (ip), vehicle: saline with Tween-80
# [6] = dose: 100.0 mg/kg/injection, schedule: Q01DX009 (ip), vehicle: saline with Tween-80
smiles,measurement,setting,value
O=C([O-])c1c[n+]2c(cc1C(=O)O)-c1cc3c(cc1CC2)OCO3,T/C,"dose: 0.63 mg/kg/injection, schedule: Q01DX009 (ip), vehicle: distilled water + Tween-80",99 % of control
same,T/C,"dose: 1.25 mg/kg/injection, schedule: Q01DX009 (ip), vehicle: distilled water + Tween-80",94 % of control
same,T/C,"dose: 2.5 mg/kg/injection, schedule: Q01DX009 (ip), vehicle: distilled water + Tween-80",94 % of control
same,T/C,"dose: 5.0 mg/kg/injection, schedule: Q01DX009 (ip), vehicle: distilled water + Tween-80",94 % of control
same,T/C,"dose: 10.0 mg/kg/injection, schedule: Q01DX009 (ip), vehicle: distilled water + Tween-80",99 % of control
same,T/C,"dose: 20.0 mg/kg/injection, schedule: Q01DX009 (ip), vehicle: distilled water + Tween-80",100 % of control
CCON1CCC(OC(=O)CC)(c2ccccc2)C(C)C1 (stereo unspecified),T/C,"dose: 100.0 mg/kg/injection, schedule: Q01DX001 (ip), vehicle: saline",111 % of control
same,T/C,"dose: 200.0 mg/kg/injection, schedule: Q01DX001 (ip), vehicle: saline",98 % of control
NS(=O)(=O)c1ccc(N=NC2C(=O)N(c3ccc(Cl)cc3)C(=S)N(c3ccc(Cl)cc3)C2=O)cc1,T/C,[1],100 % of control
same,T/C,[2],100 % of control
same,T/C,"dose: 50.0 mg/kg/injection, schedule: Q01DX005 (ip), vehicle: saline",108 % of control and 118 % of control
O=[N+]([O-])c1ccc(Sc2c3ccccc3nc3ccccc23)nc1,T/C,"dose: 25.0 mg/kg/injection, schedule: Q01DX005 (ip), vehicle: saline with Tween-80",108 % of control
same,T/C,"dose: 50.0 mg/kg/injection, schedule: Q01DX005 (ip), vehicle: saline with Tween-80",100 % of control
same,T/C,"dose: 100.0 mg/kg/injection, schedule: Q01DX005 (ip), vehicle: saline with Tween-80",106 % of control
same,T/C,"dose: 200.0 mg/kg/injection, schedule: Q01DX005 (ip), vehicle: saline with Tween-80",100 % of control
CCN(CC)CC(=O)Nc1ccc2c(c1)C(=O)c1ccc(NC(=O)CN(CC)CC)cc1C2=O,T/C,[3],90 % of control
same,T/C,"dose: 50.0 mg/kg/injection, schedule: Q01DX005 (ip), vehicle: acid diluted with saline",100 % of control
same,T/C,[4],93 % of control
same,T/C,"dose: 100.0 mg/kg/injection, schedule: Q01DX005 (ip), vehicle: acid diluted with saline",103 % of control
same,T/C,"dose: 200.0 mg/kg/injection, schedule: Q01DX005 (ip), vehicle: Klucel (hydroxypropylcellulose) (HPC)",90 % of control
same,T/C,"dose: 200.0 mg/kg/injection, schedule: Q01DX005 (ip), vehicle: acid diluted with saline",106 % of control
CSC(=S)N/N=C\C(C)=N/N=C(N)N,T/C,"dose: 3.12 mg/kg/injection, schedule: Q01DX009 (ip), vehicle: saline",101 % of control
same,T/C,"dose: 6.25 mg/kg/injection, schedule: Q01DX009 (ip), vehicle: saline",101 % of control
same,T/C,"dose: 12.5 mg/kg/injection, schedule: Q01DX009 (ip), vehicle: saline",107 % of control
Cc1nc2ccccc2c(C(=O)NO)[n+]1[O-],T/C,[5],104 % of control
same,T/C,[6],100 % of control
same,T/C,"dose: 200.0 mg/kg/injection, schedule: Q01DX009 (ip), vehicle: saline with Tween-80",103 % of control
CC(C)(C)c1cc2c(c(C(C)(C)C)c1)[O][Sb]([c]1ccccc1)([c]1ccccc1)([c]1ccccc1)[NH]2,T/C,[5],110 % of control
same,T/C,[6],115 % of control
C=C[CH2][Sn]([CH2]C)([CH2]C)[CH2]C=C,T/C,[1],107 % of control
same,T/C,[2],114 % of control
same,T/C,"dose: 100.0 mg/kg/injection, schedule: Q01DX005 (ip), vehicle: saline",154 % of control
O=C(Nc1nnc(C(F)(F)F)s1)c1c(F)cccc1F,T/C,"dose: 12.5 mg/kg/injection, schedule: Q01DX009 (ip), vehicle: saline with Tween-80",104 % of control
same,T/C,"dose: 25.0 mg/kg/injection, schedule: Q01DX009 (ip), vehicle: saline with Tween-80",104 % of control
same,T/C,[5],99 % of control
O=C(O)c1ccc(-c2c3ccc(=O)cc-3oc3cc(O)ccc23)cc1,T/C,"dose: 60.0 mg/kg/injection, schedule: Q01DX005 (ip), vehicle: Klucel (hydroxypropylcellulose) (HPC)",100 % of control
same,T/C,"dose: 120.0 mg/kg/injection, schedule: Q01DX005 (ip), vehicle: Klucel (hydroxypropylcellulose) (HPC)",97 % of control
same,T/C,"dose: 240.0 mg/kg/injection, schedule: Q01DX005 (ip), vehicle: Klucel (hydroxypropylcellulose) (HPC)",100 % of control
COc1ccc(-c2ccc(OC)c(=O)cc2)c(OC)c1OC,T/C,[3],93 % of control
same,T/C,[4],105 % of control
O=S1(=O)CCOc2ccccc2N1,T/C,"dose: 100.0 mg/kg/injection, schedule: Q04DX003 (ip), vehicle: Klucel (hydroxypropylcellulose) (HPC)",96 % of control
same,T/C,"dose: 200.0 mg/kg/injection, schedule: Q04DX003 (ip), vehicle: Klucel (hydroxypropylcellulose) (HPC)",96 % of control
same,T/C,"dose: 400.0 mg/kg/injection, schedule: Q04DX003 (ip), vehicle: Klucel (hydroxypropylcellulose) (HPC)",90 % of control
CC(=O)OC1OC(C[Se][As](C)C)C(OC(C)=O)C(OC(C)=O)C1OC(C)=O (stereo unspecified),T/C,"dose: 50.0 mg/kg/injection, schedule: Q01DX009 (ip), vehicle: Klucel (hydroxypropylcellulose) (HPC)",107 % of control
same,T/C,"dose: 100.0 mg/kg/injection, schedule: Q01DX009 (ip), vehicle: Klucel (hydroxypropylcellulose) (HPC)",120 % of control
same,T/C,"dose: 200.0 mg/kg/injection, schedule: Q01DX009 (ip), vehicle: Klucel (hydroxypropylcellulose) (HPC)",114 % of control
